# From patent US8952024B2, “Herbicidal pyrimidone derivatives” (E I du Pont de Nemours and Company, priority 2009, dated 2015)
# Tests used:
# Type in all cases: in vivo
# [1] = tested on: velvetleaf (Abutilon theophrasti); test: Test A pre-/postemergence plant response
# Description: (§1) Seeds of barnyardgrass (Echinochloa crus-galli), large crabgrass (Digitaria sanguinalis), giant foxtail (Setaria faberii), morningglory (Ipomoea spp.), pigweed (Amaranthus retroflexus), velvetleaf (Abutilon theophrasti), wheat (Triticum aestivum) and corn (Zea mays) were planted into a blend of loam soil and sand and treated preemergence with a directed soil spray using test chemicals formulated in a non-phytotoxic solvent mixture which included a surfactant. At the same time these species were also treated with postemergence applications of test compounds formulated in the same manner.
# (§2) Plants ranged in height from two to ten cm and were in the one- to two-leaf stage for the postemergence treatment. Treated plants and untreated controls were maintained in a greenhouse for approximately ten days, after which time all treated plants were compared to untreated controls and visually evaluated for injury. Plant response ratings, summarized in Table A, are based on a 0 to 100 scale where 0 is no effect and 100 is complete control. A dash (-) response means no test result.
# [2] = tested on: morningglory (Ipomoea spp.); test: Test A pre-/postemergence plant response
# Description: as §1, §2
# [3] = tested on: giant foxtail (Setaria faberii); test: Test A pre-/postemergence plant response
# Description: as §1, §2
# [4] = tested on: pigweed (Amaranthus retroflexus); test: Test A pre-/postemergence plant response
# Description: as §1, §2
# [5] = tested on: wheat (Triticum aestivum); test: Test A pre-/postemergence plant response
# Description: as §1, §2
# [6] = tested on: barnyardgrass (Echinochloa crus-galli); test: Test A pre-/postemergence plant response
# Description: as §1, §2
# [7] = tested on: large crabgrass (Digitaria sanguinalis); test: Test A pre-/postemergence plant response
# Description: as §1, §2
# corn (Zea mays) = test: Test A pre-/postemergence plant response
# Description: as §1, §2
# [8] = tested on: ducksalad (Heteranthera limosa); test: Test B flooded paddy test; conditions: for Plant response rating, Flood, Ducksalad: 250 g ai/ha, flooded paddy test, visual rating on 0 to 100 scale (0 no effect, 100 complete control) after 13 to 15 days; for Plant response rating, Ducksalad: Flood (flooded paddy test), 13 to 15 days
# Description: (§3) Plant species in the flooded paddy test consisted of rice (Oryza sativa), umbrella sedge (Cyperus difformis), ducksalad (Heteranthera limosa) and barnyardgrass (Echinochloa crus-galli) grown to the 2-leaf stage for testing. At the time of treatment, test pots were flooded with water to 3 cm above the soil surface, treated by application of test compounds directly to the paddy water, and then maintained at that water depth for the duration of the test.
# (§4) Treated plants and controls were maintained in a greenhouse for 13 to 15 days, after which time all treated plants were visually evaluated and compared to controls. Plant response ratings, summarized in Table B, are based on a scale of 0 to 100 where 0 is no effect and 100 is complete control. A dash (-) response means no test result.
# [9] = tested on: barnyardgrass (Echinochloa crus-galli); test: Test B flooded paddy test; conditions: for Plant response rating, Flood, Barnyardgrass: 250 g ai/ha, flooded paddy test, visual rating on 0 to 100 scale (0 no effect, 100 complete control) after 13 to 15 days; for Plant response rating, Barnyardgrass: Flood (flooded paddy test), 13 to 15 days
# Description: as §3, §4
# [10] = tested on: umbrella sedge (Cyperus difformis); test: Test B flooded paddy test; conditions: for Plant response rating, Flood, Sedge, Umbrella: 250 g ai/ha, flooded paddy test, visual rating on 0 to 100 scale (0 no effect, 100 complete control) after 13 to 15 days; for Plant response rating, Sedge, Umbrella: Flood (flooded paddy test), 13 to 15 days
# Description: as §3, §4
# rice (Oryza sativa) = test: Test B flooded paddy test; conditions: for Plant response rating, Flood, Rice: 250 g ai/ha, flooded paddy test, visual rating on 0 to 100 scale (0 no effect, 100 complete control) after 13 to 15 days; for Plant response rating, Rice: Flood (flooded paddy test), 13 to 15 days
# Description: as §3, §4
# [11] = Postemergence, 125 g ai/ha, visual injury, 0 to 100 scale (0 no effect, 100 complete control), approx. ten days
# [12] = Postemergence, 500 g ai/ha, 0 to 100 scale, 0 = no effect, 100 = complete control, approx. ten days
# [13] = Preemergence, 125 g ai/ha, 0 to 100 scale, 0 = no effect, 100 = complete control
# [14] = Preemergence, 500 g ai/ha, visual injury, 0 to 100 scale (0 no effect, 100 complete control), approx. ten days
# [15] = 62 g ai/ha, scale 0 to 100, 0 is no effect, 100 is complete control
# [16] = 31 g ai/ha, scale of 0 to 100 where 0 is no effect and 100 is complete control
# [17] = 125 g ai/ha, scale 0 to 100, 0 is no effect, 100 is complete control
smiles,measurement,setting,value
COc1ccccc1-n1c(-c2ccccc2)ncc(C(=O)C2=C(O)CCCC2=O)c1=O [Compound 15],Velvetleaf plant response rating,[1]; [11],100
same,"Plant response rating, Velvetleaf",[1]; [12],100
same,"Plant response rating, Velvetleaf",[1]; [13],40
same,"Plant response rating, Velvetleaf",[1]; [14],90
same,Morningglory plant response rating,[2]; [11],10
same,"Plant response rating, Morningglory",[2]; [12],50
same,"Plant response rating, Morningglory",[2]; [13],0
same,"Plant response rating, Morningglory",[2]; [14],60
same,"Foxtail, Giant plant response rating",[3]; [11],10
same,"Plant response rating, Foxtail, Giant",[3]; [12],70
same,"Plant response rating, Foxtail, Giant",[3]; [13],40
same,"Plant response rating, Foxtail, Giant",[3]; [14],70
same,Pigweed plant response rating,[4]; [11],60
same,"Plant response rating, Pigweed",[4]; [12],90
same,"Plant response rating, Pigweed",[4]; [13],30
same,"Plant response rating, Pigweed",[4]; [14],90
same,Wheat plant response rating,[5]; [11],0
same,"Plant response rating, Wheat",[5]; [12],20
same,"Plant response rating, Wheat",[5]; [13],0
same,"Plant response rating, Wheat",[5]; [14],20
same,Barnyardgrass plant response rating,[6]; [11],10
same,"Plant response rating, Barnyardgrass",[6]; [12],40
same,"Plant response rating, Barnyardgrass",[6]; [13],10
same,"Plant response rating, Barnyardgrass",[6]; [14],90
same,"Crabgrass, Large plant response rating",[7]; [11],20
same,"Plant response rating, Crabgrass, Large",[7]; [12],70
same,"Plant response rating, Crabgrass, Large",[7]; [13],40
same,"Plant response rating, Crabgrass, Large",[7]; [14],90
same,Corn plant response rating,corn (Zea mays); [11],0
same,"Plant response rating, Corn",corn (Zea mays); [12],10
same,"Plant response rating, Corn",corn (Zea mays); [13],0
same,"Plant response rating, Corn",corn (Zea mays); [14],0
same,"Plant response rating, Flood, Ducksalad",[8],60
same,"Plant response rating, Ducksalad",[8]; [15],0
same,"Plant response rating, Flood, Barnyardgrass",[9],35
same,"Plant response rating, Barnyardgrass",[9]; [15],20
same,"Plant response rating, Flood, Sedge, Umbrella",[10],30
same,"Plant response rating, Sedge, Umbrella",[10]; [15],0
same,"Plant response rating, Flood, Rice",rice (Oryza sativa),0
same,"Plant response rating, Rice",rice (Oryza sativa); [15],0
Cc1cccc(-n2c(-c3ccccc3)ncc(C(=O)C3=C(O)CCCC3=O)c2=O)c1 [Compound 18],Velvetleaf plant response rating,[1]; [11],100
same,"Plant response rating, Velvetleaf",[1]; [12],100
same,"Plant response rating, Velvetleaf",[1]; [13],30
same,"Plant response rating, Velvetleaf",[1]; [14],100
same,Morningglory plant response rating,[2]; [11],40
same,"Plant response rating, Morningglory",[2]; [12],100
same,"Plant response rating, Morningglory",[2]; [13],20
same,"Plant response rating, Morningglory",[2]; [14],70
same,"Foxtail, Giant plant response rating",[3]; [11],40
same,"Plant response rating, Foxtail, Giant",[3]; [12],90
same,"Plant response rating, Foxtail, Giant",[3]; [13],40
same,"Plant response rating, Foxtail, Giant",[3]; [14],90
same,Pigweed plant response rating,[4]; [11],100
same,"Plant response rating, Pigweed",[4]; [12],100
same,"Plant response rating, Pigweed",[4]; [13],70
same,"Plant response rating, Pigweed",[4]; [14],100
same,Wheat plant response rating,[5]; [11],0
same,"Plant response rating, Wheat",[5]; [12],50
same,"Plant response rating, Wheat",[5]; [13],0
same,"Plant response rating, Wheat",[5]; [14],40
same,Barnyardgrass plant response rating,[6]; [11],20
same,"Plant response rating, Barnyardgrass",[6]; [12],90
same,"Plant response rating, Barnyardgrass",[6]; [13],10
same,"Plant response rating, Barnyardgrass",[6]; [14],100
same,"Crabgrass, Large plant response rating",[7]; [11],30
same,"Plant response rating, Crabgrass, Large",[7]; [12],80
same,"Plant response rating, Crabgrass, Large",[7]; [13],60
same,"Plant response rating, Crabgrass, Large",[7]; [14],100
same,Corn plant response rating,corn (Zea mays); [11],0
same,"Plant response rating, Corn",corn (Zea mays); [12],20
same,"Plant response rating, Corn",corn (Zea mays); [13],0
same,"Plant response rating, Corn",corn (Zea mays); [14],20
same,"Plant response rating, Flood, Ducksalad",[8],90
same,"Plant response rating, Ducksalad",[8]; [16],20
same,"Plant response rating, Ducksalad",[8]; [15],50
same,"Plant response rating, Ducksalad",[8]; [17],65
same,"Plant response rating, Flood, Barnyardgrass",[9],50
same,"Plant response rating, Barnyardgrass",[9]; [16],10
same,"Plant response rating, Barnyardgrass",[9]; [15],20
same,"Plant response rating, Barnyardgrass",[9]; [17],20
same,"Plant response rating, Flood, Sedge, Umbrella",[10],85
same,"Plant response rating, Sedge, Umbrella",[10]; [16],0
same,"Plant response rating, Sedge, Umbrella",[10]; [15],30
same,"Plant response rating, Sedge, Umbrella",[10]; [17],50
same,"Plant response rating, Flood, Rice",rice (Oryza sativa),25
same,"Plant response rating, Rice",rice (Oryza sativa); [16],10
same,"Plant response rating, Rice",rice (Oryza sativa); [15],15
same,"Plant response rating, Rice",rice (Oryza sativa); [17],25
